Measurements: ChEMBL document CHEMBL1759919, “1α,25-Dihydroxyvitamin D3-3β-bromoacetate, a potential cancer therapeutic agent: synthesis and molecular mechanism of action” (Bioorg Med Chem Lett, 2011)
Activity calls are given as the source filed them. The rule behind the calls is not given here.

Assays:
Assay type in all cases: functional, cell-based
A498 [1] = assay: Induction of CYP24 mRNA expression in human A498 cells at 10^-6 M after 24 hrs by RT-PCR analysis
A498 [2] = assay: Induction of CYP24 mRNA expression in human A498 cells at 10^-8 M after 16 hrs by RT-PCR analysis
A498 [3] = assay: Induction of CYP24 mRNA expression in human A498 cells at 10^-8 M after 4 hrs by RT-PCR analysis

Compound | Activity (A498 [1]) | Activity (A498 [2]) | Activity (A498 [3])
C=C1/C(=C\C=C2/CCC[C@]3(C)[C@@H]([C@H](C)CCCC(C)(C)O)CC[C@@H]23)C[C@@H](OC(=O)CBr)C[C@@H]1O | Active | Active | 
C=C1/C(=C\C=C2/CCC[C@]3(C)[C@@H]([C@H](C)CCCC(C)(C)O)CC[C@@H]23)C[C@@H](O)C[C@@H]1O |  | Active | Active
